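Step 1: Grow cells in 96-well plates. Step 2: Expose to compound for 48 hours at 5 concentrations. Step 3: Interpolate endpoints linearly; if unreached, use highest concentration. The concentration for 50% growth inhibition is given as GI50.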 Activity calls are given as the source filed them. Cut-off read from the data, not from the text of the source: active = GI50 up to about 1.1 µM and inactive = higher. Where a SMILES comes first, the peptide text is derived from it. [ ]: non-standard residue; d: D form. The star is where a group is joined. Phe(2-OMe) = COc1ccccc1C[CH](N)C(=O)O; Cbz = O=C(OCc1ccccc1)*; OBn = c1ccc(CO*)cc1
Key:
Assay in all cases: growth of human tumour cells (NCI), 48 h
[1] = test system: MDA-N
[2] = test system: NCI-H23
[3] = test system: KM12
[4] = test system: UACC-62
[5] = test system: SK-MEL-2
[6] = test system: RXF 393
[7] = test system: SNB-19
[8] = test system: HL-60
[9] = test system: NCI-H460
[10] = test system: EKVX
[11] = test system: CCRF-CEM
[12] = test system: A549
[13] = test system: TK-10
[14] = test system: SK-MEL-28
[15] = test system: SF-295
[16] = test system: SN12C
[17] = test system: SF-539
[18] = test system: MDA-MB-435
[19] = test system: MDA-MB-231
[20] = test system: DU-145

Measured: GI50

COC(=O)C(Cc1ccccc1OC)NC(=O)C(CC(=O)OCc1ccccc1)NC(=O)OCc1ccccc1 (configuration not stated) (Cbz-Asp(OBn)-[Phe(2-OMe)]-OMe; configuration not given here)
inactive: [1] 95.7 µM | [2] > 100 µM | [3] > 100 µM | [4] 82 µM | [5] > 100 µM | [6] 70.8 µM | [7] > 100 µM | [8] 34.5 µM | [9] 34.4 µM | [10] > 100 µM | [11] 38 µM | [12] 60.3 µM | [13] > 100 µM | [14] 38.6 µM

COC(=O)C(=O)C(C(=O)C=C(C)C)C(=O)C(=O)Nc1ccc(C)cc1C (configuration not stated)
inactive: [2] > 100 µM | [3] > 100 µM | [4] > 100 µM | [5] > 100 µM | [6] > 100 µM | [7] > 100 µM | [8] > 100 µM | [9] > 100 µM | [15] > 100 µM | [10] > 100 µM | [11] > 100 µM | [16] > 100 µM | [17] > 100 µM | [12] > 100 µM | [13] > 100 µM | [14] > 100 µM

Cc1cc(C)nc(NS(=O)(=O)c2ccc(NC(=O)c3ccc(Cl)c4c(Nc5ccc(S(=O)(=O)Nc6nc(C)cc(C)n6)cc5)c5ccccc5nc34)cc2)n1
inactive: [2] 3.75 µM | [3] 21.8 µM | [4] 2.04 µM | [5] 13.7 µM | [6] 2.16 µM | [7] 4.89 µM | [8] 3.15 µM | [9] 17 µM | [15] 25.4 µM | [10] 48.1 µM | [11] 4.09 µM | [16] 3.14 µM | [17] 2.22 µM | [12] 22.8 µM | [13] 33.4 µM | [14] 4.28 µM

COc1cc2c(oc(=O)c3c4oc([Si](C)(C)C)cc4cc(OC)c23)c2cccc(O)c12
inactive: [2] > 100 µM | [3] > 100 µM | [4] > 100 µM | [5] > 100 µM | [6] > 100 µM | [7] > 100 µM | [8] > 100 µM | [9] > 100 µM | [15] > 100 µM | [10] > 100 µM | [11] > 100 µM | [16] > 100 µM | [17] > 100 µM | [12] > 100 µM | [13] > 100 µM | [14] > 100 µM

NS(=O)(=O)c1nnc(NS(=O)(=O)c2ccccc2C(=O)O)s1
inactive: [18] > 100 µM | [1] > 100 µM | [2] > 100 µM | [3] > 100 µM | [19] > 100 µM | [4] > 100 µM | [5] > 100 µM | [6] > 100 µM | [7] > 100 µM | [20] > 100 µM | [9] > 100 µM | [15] > 100 µM | [10] > 100 µM | [16] > 100 µM | [12] > 100 µM | [13] > 100 µM | [14] > 100 µM

COc1ccc2[nH]c3c(cnn4cnnc34)c2c1
inactive: [2] > 100 µM | [3] > 100 µM | [4] > 100 µM | [5] > 100 µM | [6] > 100 µM | [7] > 100 µM | [8] > 100 µM | [9] > 100 µM | [15] > 100 µM | [10] 23.3 µM | [11] > 100 µM | [16] > 100 µM | [17] > 100 µM | [12] > 100 µM | [13] > 100 µM | [14] > 100 µM

O=C(Cn1c2ccc(Br)cc2c2nc3ccccc3nc21)NC1CCCCC1
inactive: [18] > 100 µM | [1] > 100 µM | [2] > 100 µM | [3] > 100 µM | [19] > 100 µM | [4] > 100 µM | [5] > 100 µM | [6] > 100 µM | [7] > 100 µM | [20] > 100 µM | [9] > 100 µM | [15] > 100 µM | [16] > 100 µM | [12] > 100 µM | [13] > 100 µM | [14] 81.1 µM

O=c1[nH]c(C2CCCCC2)nc2c(Cl)cccc12
inactive: [2] > 100 µM | [3] > 100 µM | [4] > 100 µM | [5] > 100 µM | [6] > 100 µM | [7] > 100 µM | [8] > 100 µM | [9] > 100 µM | [15] > 100 µM | [10] 26.1 µM | [11] > 100 µM | [16] > 100 µM | [17] > 100 µM | [12] > 100 µM | [13] > 100 µM | [14] > 100 µM

Source: ChEMBL document CHEMBL1201862, “PubChem BioAssay data set” (2004)
